Reference: the NIST ThermoML archive (doi:10.1016/j.jct.2008.12.004)
± gives the expanded uncertainty stated by the source.

Assay: excess molar enthalpy (molar enthalpy of mixing); xn = mol fraction of the nth substance listed
Settings: 101 kPa, Liquid, Flow calorimetry

C1CCCCC1 [cyclohexane] + CCOC(C)(C)C
x2 = 0
Settings	excess molar enthalpy [kcal/mol]
298.15 K	0 ± 0.000239
313.15 K	0 ± 0.000239

CCCCCC [hexane] + C1CCCCC1
Settings	excess molar enthalpy [kcal/mol]
298.15 K, x2 = 0	0 ± 0.000263

CCOC(C)(C)C [2-ethoxy-2-methylpropane] + CCCCCCC
excess molar enthalpy [kcal/mol]
Settings	298.15 K	313.15 K
x1 = 0.0511	–	0.0101 ± 0.000263
x1 = 0.0512	0.0109 ± 0.000263	–
x1 = 0.1007	0.0212 ± 0.000382	–
x1 = 0.1504	0.0293 ± 0.000478	–
x1 = 0.1507	–	0.0288 ± 0.000478
x1 = 0.2003	0.0387 ± 0.000598	–
x1 = 0.2008	–	0.037 ± 0.000574
x1 = 0.2509	0.0449 ± 0.000669	–
x1 = 0.2511	–	0.0453 ± 0.000669
x1 = 0.3016	0.0512 ± 0.000741	–
x1 = 0.3019	–	0.0507 ± 0.000741
x1 = 0.3505	0.057 ± 0.000813	–
x1 = 0.351	–	0.055 ± 0.000789
x1 = 0.4019	0.0606 ± 0.00086	–
x1 = 0.4024	–	0.0587 ± 0.000837
x1 = 0.4515	0.0647 ± 0.000908	–
x1 = 0.4518	–	0.0601 ± 0.000837
x1 = 0.5014	0.0658 ± 0.000908	–
x1 = 0.5017	–	0.0605 ± 0.00086
x1 = 0.5516	0.0651 ± 0.000908	–
x1 = 0.5519	–	0.0598 ± 0.000837
x1 = 0.6022	0.0636 ± 0.000884	–
x1 = 0.6024	–	0.0586 ± 0.000837
x1 = 0.6509	0.0608 ± 0.00086	–
x1 = 0.6511	–	0.0558 ± 0.000789
x1 = 0.7019	0.0558 ± 0.000789	–
x1 = 0.7022	–	0.0521 ± 0.000741
x1 = 0.7512	0.0501 ± 0.000717	–
x1 = 0.7515	–	0.0465 ± 0.000693
x1 = 0.8008	0.0433 ± 0.000645	–
x1 = 0.801	–	0.04 ± 0.000598
x1 = 0.8507	0.0349 ± 0.00055	–
x1 = 0.8509	–	0.0321 ± 0.000502
x1 = 0.9009	0.0243 ± 0.00043	–
x1 = 0.901	–	0.0225 ± 0.000406
x1 = 0.9492	0.0132 ± 0.000287	–
x1 = 0.9493	–	0.0122 ± 0.000287
x1 = 1	0 ± 0.000239	0 ± 0.000239

C1CCCCC1 [cyclohexane] + CCCCCC
298.15 K
Settings	excess molar enthalpy [kcal/mol]
x1 = 0.074	0.0116 ± 0.000311
x1 = 0.1463	0.0217 ± 0.000406
x1 = 0.219	0.0302 ± 0.000502
x1 = 0.2876	0.0377 ± 0.000574
x1 = 0.3542	0.0438 ± 0.000645
x1 = 0.4193	0.0482 ± 0.000717
x1 = 0.4832	0.0512 ± 0.000741
x1 = 0.5476	0.0524 ± 0.000765
x1 = 0.6085	0.0525 ± 0.000765
x1 = 0.6675	0.051 ± 0.000741
x1 = 0.7255	0.0476 ± 0.000693
x1 = 0.7839	0.0426 ± 0.000645
x1 = 0.8395	0.0353 ± 0.00055
x1 = 0.8935	0.026 ± 0.00043
x1 = 0.9482	0.014 ± 0.000311
x1 = 1	0 ± 0.000239

CCCO [propan-1-ol] + COC(C)(C)C
Settings	excess molar enthalpy [kcal/mol]
298.15 K, x2 = 0	0 ± 0.000263

COC(C)(C)C [2-methoxy-2-methylpropane] + CCCCCC
298.15 K
Settings	excess molar enthalpy [kcal/mol]
x1 = 0.0504	0.0172 ± 0.000359
x1 = 0.1002	0.0319 ± 0.000526
x1 = 0.1497	0.045 ± 0.000669
x1 = 0.2008	0.0567 ± 0.000813
x1 = 0.2491	0.0658 ± 0.000932
x1 = 0.2994	0.0739 ± 0.00103
x1 = 0.3486	0.0805 ± 0.0011
x1 = 0.4002	0.0856 ± 0.00117
x1 = 0.4484	0.0883 ± 0.0012
x1 = 0.4997	0.0894 ± 0.0012
x1 = 0.5493	0.0885 ± 0.0012
x1 = 0.6006	0.0858 ± 0.00117
x1 = 0.6496	0.0815 ± 0.0011
x1 = 0.7001	0.0749 ± 0.00103
x1 = 0.75	0.0671 ± 0.000932
x1 = 0.7992	0.0569 ± 0.000813
x1 = 0.8501	0.0452 ± 0.000669
x1 = 0.9007	0.0316 ± 0.000526
x1 = 0.9506	0.0169 ± 0.000359
x1 = 1	0 ± 0.000263

CCCCCC [hexane] + COC(C)(C)C
Settings	excess molar enthalpy [kcal/mol]
298.15 K, x2 = 0	0 ± 0.000263

C1CCCCC1 [cyclohexane] + Cc1ccccc1
excess molar enthalpy [kcal/mol]
Settings	298.15 K	313.15 K
x1 = 0.0491	–	0.0248 ± 0.00043
x1 = 0.0492	0.0263 ± 0.000454	–
x1 = 0.1003	–	0.0482 ± 0.000717
x1 = 0.1004	0.051 ± 0.000741	–
x1 = 0.1496	–	0.0686 ± 0.000956
x1 = 0.1497	0.0728 ± 0.001	–
x1 = 0.199	–	0.0861 ± 0.00117
x1 = 0.1991	0.091 ± 0.00122	–
x1 = 0.2485	–	0.101 ± 0.00134
x1 = 0.2486	0.108 ± 0.00143	–
x1 = 0.298	–	0.115 ± 0.00151
x1 = 0.2981	0.121 ± 0.00158	–
x1 = 0.3477	–	0.125 ± 0.00165
x1 = 0.3479	0.132 ± 0.00172	–
x1 = 0.3974	–	0.134 ± 0.00174
x1 = 0.3976	0.141 ± 0.00182	–
x1 = 0.4493	0.147 ± 0.00189	0.139 ± 0.00182
x1 = 0.4992	0.149 ± 0.00194	0.142 ± 0.00184
x1 = 0.5493	0.149 ± 0.00194	0.142 ± 0.00184
x1 = 0.5974	–	0.139 ± 0.00182
x1 = 0.5975	0.147 ± 0.00189	–
x1 = 0.6476	–	0.134 ± 0.00174
x1 = 0.6478	0.141 ± 0.00182	–
x1 = 0.6979	–	0.125 ± 0.00163
x1 = 0.6981	0.131 ± 0.00172	–
x1 = 0.7483	–	0.113 ± 0.00148
x1 = 0.7485	0.118 ± 0.00155	–
x1 = 0.7989	–	0.0978 ± 0.00131
x1 = 0.799	0.103 ± 0.00136	–
x1 = 0.8496	0.0828 ± 0.00112	0.0788 ± 0.00108
x1 = 0.9003	0.0585 ± 0.000837	0.0562 ± 0.000813
x1 = 0.9491	0.0319 ± 0.000526	0.0304 ± 0.000502
x1 = 1	0 ± 0.000239	0 ± 0.000239

Cc1ccccc1 [toluene] + CCOC(C)(C)C
x2 = 0
Settings	excess molar enthalpy [kcal/mol]
298.15 K	0 ± 0.000239
313.15 K	0 ± 0.000239
